Entries after “also recorded” stand apart in the source; their conditions may differ.
Legend:
Format in all cases: physicochemical
[1] = Indices of tableting performance (Hiestand) of bulk azithromycin; conditions: forms N, M, G, A milled, F and J unmilled
Procedure: Indices of tableting performance, for several azithromycin forms, were assessed to identify any mechanical deficiencies or attributes that may affect tablet formulation for these azithromycin forms. This assessment was performed in accordance with the procedures described in “Indices of Tableting, Performance” […] and D. P. Smith, Powder Technology 38 [1984] pp. 145-159. Specifically, the Brittle Fracture Index, BFI, was calculated from the ratio of a material's regular tensile strength to its compromised tensile strength. Strain Index, SI, was determined from the dynamic indentation hardness test. Worst Case Bonding Index was determined by assessing the extent of particle bonding remaining after decompression assuming a very short compression dwell time and a plastic mechanism of particle separation during decompression. Tableting Indices were determined for bulk azithromycin lots of six different crystalline forms, specifically forms N, M, G, A, F and J. Forms N, M and G were milled with a Fitzmill (Model JT, The Fitzpatrick Co., Elmhurst, Ill.) using a 0.027'' screen and knives at high speed in an attempt to match the smaller particle size of milled Form A. Unmilled forms F and J were evaluated “as is” due to their relatively small particle sizes.

[2] = Density and Carr's Compressibility Index (flowability) of dry blends and dry granulations
Excerpt: Carr's Compressibility Index was used to evaluate the flowability of the four dry granulations. Carr's Compressibility Index is a simple test to evaluate flowability by comparing both the initial and final (tapped) bulk volumes and the rate of packing down. A useful empirical guide to flow is given by Carr's compressibility index: Compressibility Index(%)=[(tapped density−initial density)/tapped density]×100 […] The procedure is described in Int. J. Pharm. Tech. & Prod. Mfr., 6(3) 10-16, 1985.

[3] = Slug (compact) hardness, Schleuniger hardness tablet tester
Excerpt: A compaction simulator was used to compress the blends. The compaction simulator was designed as a single station tablet press in which the compression dwell time can be adjusted to simulate different types of tablet presses. All the formulations were slugged on the compaction simulator configured as the Kilian RX-67 press with a dwell time of 0.3145 seconds using […] round flat face tooling. The slugs were then comminuted using a Fitz mill with a 0.125″ screen with knives forward and run at slow speed. […] The slugs were tested for hardness (kP scale), using a Schleuniger hardness tablet tester (Dr. Schleuniger Pharmatron AG, Solothurn, Switzerland).

[4] = Tablet hardness, Schleuniger hardness tablet tester
Procedure: (§1) All four formulations were compressed on the compaction simulator using either 0.344″×0.688″ oval tooling, or ½″ standard round concave (SRC) tooling. The tablets were tested for hardness (kP scale), using a Schleuniger hardness tablet tester (Dr. Schleuniger Pharmatron AG, Solothurn, Switzerland), and for friability (100 rotations/4 minutes) using a Vanderkamp Friabulator Tablet Tester (Vankel, Cary, N.C., US).

[5] = Tablet friability, Vanderkamp Friabulator (100 rotations/4 minutes)
Procedure: Friability is a standard test known to one skilled in the art. Friability is measured under standardized conditions by weighing out a certain number of tablets (generally 20 tablets or less), placing them in a rotating Plexiglas drum in which they are lifted during replicate revolutions by a radial lever, and then dropped approximately 8 inches. After replicate revolutions (typically 100 revolutions at 25 rpm), the tablets are reweighed and the percentage of formulation abraded or chipped is calculated. The friability of the tablets, of the present invention, is preferably in the range of about 0% to 3%, and values about 1%, or less, are considered acceptable for most drug and food tablet contexts. Friability which approaches 0% is particularly preferred.
as §1

[6] = Tablet hardness, Schleuniger hardness tablet tester; remark: listed apart in the source
[7] = 35.2 wt % azithromycin, dicalcium phosphate anhydrous diluent, Long blend method
[8] = 35.2 wt % azithromycin, dicalcium phosphate anhydrous diluent, Long blend method, slugged
[9] = 35.2 wt % azithromycin, dicalcium phosphate anhydrous diluent, Short blend method
[10] = 35.2 wt % azithromycin, dicalcium phosphate anhydrous diluent, Short blend method, slugged
[11] = Table 3A, low drug loading: 35.2 wt % azithromycin, 54.8 wt % dicalcium phosphate anhydrous, long blend
[12] = Table 3B, high drug loading: 58.2 wt % azithromycin, 31.8 wt % dicalcium phosphate anhydrous, long blend
[13] = Table 4A, low drug loading (35.2 wt % azithromycin), diluent DCP, anhyd.
[14] = Table 4A, low drug loading (35.2 wt % azithromycin), diluent DCP, dihyd.
[15] = Table 4B, high drug loading (58.2 wt % azithromycin), diluent DCP, anhyd.
[16] = Table 4B, high drug loading (58.2 wt % azithromycin), diluent DCP, dihyd.
[17] = Table 7, milled Form A lot, 58.2 wt % azithromycin, DCP anhydrous
[18] = Table 7, unmilled Form A lot, 58.2 wt % azithromycin, DCP anhydrous
[19] = Table 7A, 55.76 wt % azithromycin, lactose anhydrous, corn starch, roller compaction 850 psi, dihydrate
[20] = Table 7 Lot 1, milled, roller compaction, Roll Pressure Setting 850 psi
[21] = Table 7 Lot 2, milled, roller compaction, Roll Pressure Setting 300 psi
[22] = Table 7 Lot 3, unmilled, roller compaction, Roll Pressure Setting 500 psi
[23] = Table 7 Lot 4, unmilled, roller compaction, Roll Pressure Setting 300 psi
[24] = Table 2B Run 4, Short blend, Oval tooling, compression force 12 kN
[25] = Table 4C, low drug loading, diluent DCP, anhyd., Oval tooling
[26] = Table 4C, low drug loading, diluent DCP, dihyd., SRC (½″) tooling
[27] = Table 2B Run 5, Short blend, Oval tooling, compression force 18.7 kN
[28] = Table 3D, high drug loading (58.2 wt % azithromycin), DCP anhydrous, modified capsule shape tablets, target weight 450 mg
[29] = Table 4C, low drug loading, diluent DCP, anhyd., SRC (½″) tooling
[30] = Table 4C, low drug loading, diluent DCP, dihyd., Oval tooling
[31] = Table 4D, high drug loading, diluent DCP, anhyd., modified capsule shape

Brittle Fracture Index (BFI) [1]: 0.10
Strain Index (SI) ([1]; dihydrate): 0.0044
Tensile Strength ([1]; dihydrate): 0.99 Mpa
Worst Case Bonding Index (BIw) × 10^2 ([1]; dihydrate): 0.9
Dry Blend Carr's Index [2, 7]: 44%
Dry Blend density As Is [2, 7]: 0.59 g/cc
Dry Blend density Tapped [2, 7]: 1.05 g/cc
Granulation Carr's Index [2, 8]: 26%
Granulation Density As Is [2, 8]: 0.88 g/cc
Granulation Density Tapped [2, 8]: 1.19 g/cc
Dry Blend Carr's Index [2, 9]: 43%
Dry Blend density As Is [2, 9]: 0.59 g/cc
Dry Blend density Tapped [2, 9]: 1.04 g/cc
Granulation Carr's Index [2, 10]: 32%
Granulation Density As Is [2, 10]: 0.78 g/cc
Granulation Density Tapped [2, 10]: 1.14 g/cc
Granulation Carr's Index [2, 11]: 26%
Granulation Density As Is [2, 11]: 0.89 g/cc
Granulation Density Tapped [2, 11]: 1.19 g/cc
Granulation Carr's Index [2, 12]: 30%
Granulation Density As Is [2, 12]: 0.67 g/cc
Granulation Density Tapped [2, 12]: 0.96 g/cc
Dry Granulation Carr's Index [2, 13]: 26%
Dry Granulation Density As Is [2, 13]: 0.89 g/cc
Dry Granulation Density Tapped [2, 13]: 1.19 g/cc
Dry Granulation Carr's Index [2, 14]: 18%
Dry Granulation Density As Is [2, 14]: 0.84 g/cc
Dry Granulation Density Tapped [2, 14]: 1.04 g/cc
Dry Granulation Carr's Index [2, 15]: 30%
Dry Granulation Density As Is [2, 15]: 0.67 g/cc
Dry Granulation Density Tapped [2, 15]: 0.96 g/cc
Dry Granulation Carr's Index [2, 16]: 25%
Dry Granulation Density As Is [2, 16]: 0.69 g/cc
Dry Granulation Density Tapped [2, 16]: 0.92 g/cc
Dry Blend Carr's Index [2, 17]: 47%
Dry Blend density As Is [2, 17]: 0.49 g/cc
Dry Blend density Tapped [2, 17]: 0.92 g/cc
Dry Blend Carr's Index [2, 18]: 44%
Dry Blend density As Is [2, 18]: 0.57 g/cc
Dry Blend density Tapped [2, 18]: 1.01 g/cc
Dry Granulation Density Tapped ([2]; Table 7A, 55.76 wt % azithromycin, lactose anhydrous, corn starch, roller compaction 850 psi): 0.86 g/cc
Dry Granulation Carr's Index [2, 19]: 24%
Dry Granulation Density As Is [2, 19]: 0.66 g/cc
Dry Granulation Carr's Index [2, 20]: 39%
Dry Granulation Density As Is [2, 20]: 0.55 g/cc
Dry Granulation Density Tapped [2, 20]: 0.91 g/cc
Dry Granulation Carr's Index [2, 21]: 33%
Dry Granulation Density As Is [2, 21]: 0.60 g/cc
Dry Granulation Density Tapped [2, 21]: 0.90 g/cc
Dry Granulation Carr's Index [2, 22]: 30%
Dry Granulation Density As Is [2, 22]: 0.64 g/cc
Dry Granulation Density Tapped [2, 22]: 0.92 g/cc
Dry Granulation Carr's Index [2, 23]: 26%
Dry Granulation Density As Is [2, 23]: 0.66 g/cc
Dry Granulation Density Tapped [2, 23]: 0.92 g/cc
Avg Slug Hardness [3, 7]: 13.4 kP
Avg Slug Hardness [3, 9]: 13.7 kP
Avg Slug Hardness [3, 11]: 13 kP
Avg Slug Hardness [3, 12]: 12 kP
Avg Slug Hardness [3, 13]: 13 kP
Avg Slug Hardness [3, 14]: 11 kP
Avg Slug Hardness [3, 15]: 12 kP
Avg Slug Hardness [3, 16]: 10 kP
Avg Tablet Hardness ([4]; Table 2A, 35.2 wt % azithromycin, DCP anhydrous, Long blend, Oval tooling, compression force 13.5 kN (A), 19 kN (F)): 9.0 kP
Avg Tab Hardness [4, 24]: 6.8 kP
Avg Tablet Hardness [4, 25]: 9.0 kP
Avg Tablet Hardness [4, 26]: 6.2 kP
Friability ([5]; Table 2A, 35.2 wt % azithromycin, DCP anhydrous, Long blend, Oval tooling): 2 of 5
Friability ([5]; Table 2A, 35.2 wt % azithromycin, DCP anhydrous, Long blend, ½″ SRC tooling): 1.30%
Friability [5, 24]: capped
Friability [5, 27]: capped
Friability [5, 28]: 0.50%
Friability [5, 25]: Broken
Friability [5, 29]: 1.30%
Friability [5, 30]: Broken
Friability [5, 26]: 0.94%
Friability [5, 31]: 0.50%
Avg Tablet Hardness ([6]; Table 2A, 35.2 wt % azithromycin, DCP anhydrous, Long blend, ½″ SRC tooling, 9.6 kN): 5.8 kP
Avg Tab Hardness [6, 27]: 8.2 kP
Avg Hardness ([6]; Table 3C, low drug loading (35.2 wt % azithromycin), DCP anhydrous, oval tablets, target weight 750 mg): 9.0 kP
Avg Hardness [6, 28]: 6.2 kP
Avg Tablet Hardness [6, 29]: 5.8 kP
Avg Tablet Hardness [6, 30]: 6.8 kP
Avg Tablet Hardness [6, 31]: 6.2 kP
Avg Tablet Hardness ([6]; Table 4D, high drug loading, diluent DCP, dihyd., modified capsule shape): 5.2 kP
Compound: CC[C@H]1OC(=O)[C@H](C)[C@@H](O[C@H]2C[C@@](C)(OC)[C@@H](O)[C@H](C)O2)[C@H](C)[C@@H](O[C@@H]2O[C@H](C)C[C@H](N(C)C)[C@H]2O)[C@](C)(O)C[C@@H](C)CN(C)[C@H](C)[C@@H](O)[C@]1(C)O [Form A, azithromycin dihydrate, reference compound]
Friability ([5]; Table 3C, low drug loading (35.2 wt % azithromycin), DCP anhydrous, oval tablets, target weight 750 mg, dihydrate): broke during friability testing; also recorded: Broken
